# Source: patent US10611764B2 (Wisconsin Alumni Research Foundation, priority 2017, dated 2020)
# Numbering of substitutions follows the chain as printed.
# Columns and labels:
# [1] = target: T1, mouse AHR (mAHR B1-allele) (Mus musculus, UniProt P30561, M589L/N533S/P471L); test: cell-based
# T1 sequence (P30561 10-805 P471L/N533S/M589L): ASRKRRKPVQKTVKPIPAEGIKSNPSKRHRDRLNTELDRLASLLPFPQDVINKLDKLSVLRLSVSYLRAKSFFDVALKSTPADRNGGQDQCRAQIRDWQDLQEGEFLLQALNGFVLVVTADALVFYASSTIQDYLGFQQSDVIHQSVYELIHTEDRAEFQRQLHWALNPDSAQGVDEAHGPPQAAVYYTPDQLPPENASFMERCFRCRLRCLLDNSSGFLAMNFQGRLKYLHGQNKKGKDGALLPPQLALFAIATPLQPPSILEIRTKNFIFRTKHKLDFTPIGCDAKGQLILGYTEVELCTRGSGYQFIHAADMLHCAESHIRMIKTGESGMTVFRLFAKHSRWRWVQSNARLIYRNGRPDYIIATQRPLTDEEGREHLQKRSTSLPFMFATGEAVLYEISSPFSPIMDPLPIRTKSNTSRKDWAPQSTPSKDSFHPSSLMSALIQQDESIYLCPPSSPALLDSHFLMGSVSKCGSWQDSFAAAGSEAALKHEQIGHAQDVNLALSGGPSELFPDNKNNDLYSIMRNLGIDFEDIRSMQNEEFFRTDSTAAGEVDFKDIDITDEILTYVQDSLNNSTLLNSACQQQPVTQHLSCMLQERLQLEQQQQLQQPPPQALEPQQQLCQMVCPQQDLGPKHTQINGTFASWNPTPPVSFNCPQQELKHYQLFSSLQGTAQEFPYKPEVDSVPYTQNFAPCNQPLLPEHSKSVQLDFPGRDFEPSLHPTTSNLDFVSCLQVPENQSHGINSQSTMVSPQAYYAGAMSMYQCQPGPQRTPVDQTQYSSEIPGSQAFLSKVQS
# Method: The wild type and mutant mAHR were cloned into the XhoI/SalI cloning sites of pTARGET (Promega, Madison, Wis.) using routine PCR and molecular cloning procedures using the pSport-mAHR plasmid (PL65) as template (Dolwick, Swanson et al. 1993). For recombinant expression of mAHR, COS-1 cells were cultured in 6 cm dishes and transfected with 2 μg of wild-type or mutant mAHR expression vector. Twenty-four hours after transfection, cells were collected, and the whole cell extracts were prepared by celLytic M reagent (Sigma-Aldrich, St Louis, Mo.). 100 μg of whole cell extract was analyzed by western blot using antibodies that specifically recognize the mAHR (bear-2) and β-actin (Sigma).
# COS-1 cells were cultured in 96-well plates and transiently transfected with pTarget vector containing the expression cassette of wild-type or mutant mAHR, or empty vector (3 ng), together with pGudLu6.1 DREs-driven luciferase reporter vector (14 ng) (Han, Nagy et al. 2004) and TK-renilla luciferase vector (3 ng) (Invitrogen, Carlsbad Calif.). […] The expressed luciferase activity was measured by ENSPIRE plate reader (Perkin Elmer, USA). Data analysis and simulation of dose response curves were performed using GraphPad Prism 5 (GraphPad software Inc., La Jolla, Calif.). The experiments were performed in triplicate and repeated at least three times. Representative results of one repeat are shown as mean±SEM.
# mAHR Q377A mutant = target: T2, mAHR Q377A mutant (Mus musculus, UniProt P30561, Q377A); test: Luciferase reporter gene assay, mutant mAHR Q377A in COS-1 cells; type: cell-based; conditions: relative to WT mAHR
# T2 construct: expressed in transfected cells; host or cells: COS-1
# T2 sequence (P30561 10-805 Q377A limits assumed): T1 sequence (P30561 10-805 P471L/N533S/M589L) with Q368A, L462P, S524N, L580M
# mAHR H285A mutant = test: Luciferase reporter gene assay, mutant mAHR H285A in COS-1 cells; type: cell-based, mouse; conditions: relative to WT mAHR
# [2] = tested on: Salmonella typhimurium tester strains (TA97a, TA98, TA100, and TA1535) and Escherichia coli strain (WP2 uvrA pKM101); test: Ames screening; conditions: with and without S9, 7.8-250 ng/well
# Method: The Ames screening detects both frameshift and base-pair substitution mutations using 4 Salmonella typhimurium tester strains (TA97a, TA98, TA100, and TA1535) and 1 Escherichia coli strain (WP2 uvrA pKM101). Strains TA97a and TA98 detect frameshift mutations, and TA100, TA1535, and WP2 uvrA pKM101 detect base-pair substitution mutations. This scaled-down Ames test uses minimal compound, is conducted with and without metabolic activation (S9 fraction), and uses multiwell plates. The Ames screen for TEACOP 270 was tested in duplicate with strains TA97a, TA98, TA100, TA1535, and WP2 uvrA pKM101 in the presence and absence of a metabolic activation system (Aroclor™ 1254 induced rat liver S9 microsomal fraction) at 7.8, 15.5, 31, 62.5, 125, and 250 ng/well. Positive control compounds were used at 4 different concentrations to ensure the assay system was sensitive to known mutagenic compounds. DMSO was used as the vehicle control.
# [3] = Solubility in commonly used (NMR) solvents; type: physicochemical
smiles,measurement,setting,value
C1=Cc2c3ccccc3nc3nc4ccccc4c(c23)N1 [Compound 4],EC50,[1],0.378 nM
same,fold lower measured activity than Compound 4,"[1]; purified sample largely contaminated by lipids, FIG. 5c",more than 10 fold
same,effect of Q377A mutation on AHR induction activity,mAHR Q377A mutant,barely affected
same,effect of H285A mutation on AHR induction activity,mAHR H285A mutant,drastically affected
same,mutagenicity (Ames test),[2],No mutagenicity is detected
same,solubility in CDCl3,[3]; TFA salt,good solubility
same,solubility,[3]; free base form,poor solubility
same,"solubility in commonly used solvents (CDCl3, CD3OD, DMSO-d6, etc)",[3]; isolated material,very poor solubility
